The source of these data is patent US20240246943A1, “MULTIFACETED APPROACH TO NOVEL INTERLEUKIN-6 INHIBITORS” (UNIVERSITY OF FLORIDA RESEARCH FOUNDATION, INCORPORATED, priority 2021, published 2024).

Molecules are shown by their SMILES. Like-named read-outs stand apart in the source and are kept apart here. Some results are limits rather than exact numbers.

Common to all, as to type: cell-based
In one test the test system is induced p-STAT1. The test can be described thus: Selectivity study, western blot, T47D cells, IFN stimulation. The settings on record: T47D breast cancer cells, compound, then cytokine. The method, then: (§1) Cells were harvested and lysed in cold radioimmunoprecipitation assay (RIPA) lysis buffer containing proteasome inhibitor cocktail and phosphatase inhibitor cocktail. The protein concentrations were determined using the BCA Protein Assay kit. After adding the loading buffer and boiling at 95° C. for 10 minutes, equivalent amounts of proteins were loaded on and separated by SDS-PAGE, and then were transferred to PVDF membranes. Membranes were probed with primary antibodies (1:1000) against gp130 and GAPDH. Membranes were analyzed using Enhanced Chemiluminescence Plus reagents and either scanned with the Storm Scanner (Amersham Pharmacia Biotech, Inc., Piscataway, NJ) or imaged with ChemiDoc MP imaging system (Bio-Rad, Hercules, CA).
(§2) Inhibition of downstream STAT3 phosphorylation was performed. T47D breast cancer cells, which lack endogenous IL-6, were treated with LLM418-MCBu for 2 hours. Then, cytokine was administered for 30 minutes (IL-6, INF, LIF, or OSM). Western blot conducted afterwards to assess dose-dependent inhibition of IL-6 signaling (or lack thereof) (FIG. 5).

For another test, the system named is IL-6 induced p-STAT3. The test can be described thus: Selectivity study, western blot, T47D cells, IL-6 stimulation. The settings on record: T47D breast cancer cells, compound 2 hours, then cytokine 30 minutes. The method, then:
as §1, §2

The test system of test [1] is SUM159 breast cancer cells. The test can be described thus: MTT cell viability assay, SUM159. The settings on record: 72 hours, Inactive = no measurable activity at 20 μM. The method, then: (§3) Cell viability of MDA-MB-231 breast cancer cells was evaluated by using the MTT assay in triple replicates in one experiment and repeated for three times (FIG. 3). MDA-MB-231 SUM159, SUM159 gp140ko, MDA-MB-231 breast cancer cells or SUM149 or HCC1937 BRCA mutant breast cancer cells were seeded in 96-well plates at a density of 3,000 cells per well. The cells were incubated at 37° C. for a period of 24 hours. Escalating concentrations of IL-6/gp130 inhibitors (e.g., compounds of Formula (A), (B), (C), (D), (E), or (F) including LLM-418, bazedoxifene, LS-28-3, and COMP-D (LS-101-D)) were added in triplicate to the plates in the presence of 10% FBS. After incubation for 72 hours (unless otherwise noted), a stock solution of MTT (0.5 mg/ml) was then added to each well containing the treated cells, followed by incubation at 37° C. for 3 h. After removal of medium, the MTT dye was dissolved with spectrophotometric grade DMSO and the absorbance was read at 570 nm. The IC50 value is determined by interpolation based on the absorbance value halfway between positive and negative controls.

Test [2] relates to SUM159 gp130ko breast cancer cells. The test can be described thus: MTT cell viability assay, SUM159 gp130ko. The settings on record: SUM159, Table 1 batch studies, 72 hours, read-out: IC50 Values in Breast Cancer Cell Lines, SUM159 gp130ko. The method, then:
as §3, with “MDA-MB-231 SUM159, SUM159 gp140ko, MDA-MB-231 breast cancer cells or SUM149 or HCC1937 BRCA mutant breast cancer cells were seeded in 96-well plates at a density of 3,000 cells per well.” left out

Another test deals with LIF induced p-STAT3. The test can be described thus: Selectivity study, western blot, T47D cells, LIF stimulation. The settings on record: T47D breast cancer cells, compound, then cytokine. The method, then:
as §1, §2

The subject of test [3] is MDA-MB-231 breast cancer cells. The test can be described thus: MTT cell viability assay, MDA-MB-231. The settings on record: Homo sapiens, MDA-MB-231, MTT, 72 hours, Inactive = no measurable activity at 20 μM. The method, then: as §3, with “MDA-MB-231 SUM159, SUM159 gp140ko, MDA-MB-231 breast cancer cells or SUM149 or HCC1937 BRCA mutant breast cancer cells were seeded in 96-well plates at a density of 3,000 cells per well.” left out

The subject of test [4] is MDA-MB-231 Bone Metastatic breast cancer cells. The test can be described thus: MTT cell viability assay, MDA-MB-231 Bone Metastatic. The settings on record: Homo sapiens, 72 hours. The method, then: as §3, with “MDA-MB-231 SUM159, SUM159 gp140ko, MDA-MB-231 breast cancer cells or SUM149 or HCC1937 BRCA mutant breast cancer cells were seeded in 96-well plates at a density of 3,000 cells per well.” left out

Test [5] concerns pSTAT3 in BRCA-mutant cell line. The test can be described thus: pSTAT3 inhibition in BRCA-mutant cell line (FIG. 8). The settings on record: compound, then cytokine. The method, then:
(§4) FIG. 8 depicts TNBC, BRCA-mutant, and T47D cells stimulated with LLM418-MCBU, then cytokine.
as §1

For the next test, the system named is pSTAT3 in T47D cell line. The test can be described thus: pSTAT3 inhibition in T47D cell line (FIG. 8). The settings on record: compound, then cytokine. The method, then: as §4, §1
For a further test, the system named is pSTAT3 in TNBC cell line. The test can be described thus: pSTAT3 inhibition in TNBC cell line (FIG. 8). The settings on record: compound, then cytokine. The procedure:
as §4, §1

Test [6] has as its system HCC1937 BRCA-mutant TNBC cells. The test can be described thus: Cell viability, combination with PARP inhibitor talazoparib (FIG. 9). The settings on record: LLM418-MCBU in combination with PARP inhibitor talazoparib. An excerpt: FIG. 9 depicts cell viability of HCC1937 BRCA-mutant TNBC cells treated with LLM418-MCBU and PARP inhibitor talazoparib.
Where [7] appears, read: SUM159, Table 1 batch studies, read-out: IC50 Values in Breast Cancer Cell Lines, SUM159.
Where [8] appears, read: SUM159, Table 3 batch studies (independent from Table 1), read-out: SUM159 IC50.
[9] abbreviates: Table 1 batch studies, read-out: IC50 Values in Breast Cancer Cell Lines, MDA-MB-231.
[10] abbreviates: Table 3 batch studies (independent from Table 1), read-out: MDA-MB-231 IC50.
The mark [11] stands for this setting: MDA-MB-231, Table 1 batch studies, read-out: IC50 Values in Breast Cancer Cell Lines, MDA-MB-231 Bone Metastatic.
Where [12] appears, read: MDA-MB-231, Table 3 batch studies (independent from Table 1), read-out: MDA-MB-231 Bone Metastatic IC50.

With `O=C(Nc1ccccc1-c1ccn(C2CCC2)n1)c1ccc(OCCN2CCCCC2)cc1` [LLM418-CBU, N-(2-(1-cyclobutyl-1H-pyrazol-3-yl)phenyl)-4-(2-(piperidin-1-yl)ethoxy)benzamide], the “Inhibition of IFN-7 induced p-STAT1” value in the test with induced p-STAT1 is listed as “also inhibits IFN-7 induced p-STAT1”. The “Inhibition of IL-6 induced p-STAT3” value with IL-6 induced p-STAT3 is “inhibits IL-6 induced p-STAT3”. Further, the IC50 was found to be 5.9 µM in [1] (setting [7]); 15.1 µM in test [1] (setting [8]); 16.1 µM in test [2]; 49.7 µM in [3] (setting [9]); 30.1 µM in [3] (setting [10]); 11.8 µM in test [4] (setting [11]). In test [4] (setting [12]), the IC50 was determined as 21.1 µM. In addition, in the test on LIF induced p-STAT3, the “Inhibition of LIF induced p-STAT3” value is “also inhibits”.

Turning to `CCn1ccc(-c2ccccc2NC(=O)c2ccc(OCCN3CCCCC3)cc2)n1` [LLM418-Et, N-(2-(1-ethyl-1H-pyrazol-3-yl)phenyl)-4-(2-(piperidin-1-yl)ethoxy)benzamide], the “Inhibition of IFN-7 induced p-STAT1” value in the test with induced p-STAT1 is “inhibit both IL-6 induced p-STAT3 and IFN-7 induced p-STAT1”. Besides, in the test with IL-6 induced p-STAT3, the “Inhibition of IL-6 induced p-STAT3” value was “inhibit both IL-6 induced p-STAT3 and IFN-7 induced p-STAT1”. Further, the half-inhibitory concentration (IC50) in test [1] (setting [7]) stood at 13.5 µM; in test [1] (setting [8]), 17.4 µM; in test [2] it was 18.2 µM; in test [3] (setting [9]), 17.5 µM; in test [3] (setting [10]) it was 17.5 µM; in [4] (setting [11]) it was 16.8 µM. In test [4] (setting [12]), the half-maximal inhibitory concentration (IC50) is 16.8 µM.

For `O=C(Nc1ccccc1-c1ccn(CC2CCC2)n1)c1ccc(OCCN2CCCCC2)cc1` [LLM418-MCBu, N-(2-(1-(cyclobutylmethyl)-1H-pyrazol-3-yl)phenyl)-4-(2-(piperidin-1-yl)ethoxy)benzamide], the “Inhibition of IL-6 induced p-STAT3” value was “inhibited IL-6 selectively in a dose-dependent manner” in the test with IL-6 induced p-STAT3 and “selectively inhibits IL-6 induced p-STAT3” in the test on IL-6 induced p-STAT3 (listed as LLM418-MCBU). Moreover, the 50% inhibitory concentration (IC50) in test [1] (setting [7]) was determined as 10.5 µM; in test [1] (setting [8]), 10.5 µM; in test [2] it was 13.9 µM; in [3] (setting [9]) it was 18.5 µM; in test [3] (setting [10]) it was 18.5 µM; in test [4] (setting [11]), 7.3 µM. Besides, the IC50 in [4] (setting [12]) is 7.3 µM. Also, the “Inhibition of pSTAT3, BRCA-mutant cell line” value in test [5] was “inhibits pSTAT3”. Moreover, in the test with pSTAT3 in T47D cell line, the “Inhibition of pSTAT3, T47D cell line” value is given as “inhibits pSTAT3”. Also, in the test with pSTAT3 in TNBC cell line, the “Inhibition of pSTAT3, TNBC cell line” value is given as “inhibits pSTAT3”. Besides, the “CI (synergy in inhibiting cell viability)” value in [6] is less than 1.0.

In the case of `CC(C)n1ccc(-c2ccccc2NC(=O)c2ccc(OCCN3CCCCC3)cc2)n1` [LLM418-iPR, N-(2-(1-isopropyl-1H-pyrazol-3-yl)phenyl)-4-(2-(piperidin-1-yl)ethoxy)benzamide], the “Inhibition of IFN-7 induced p-STAT1” value with induced p-STAT1 was “inhibit both IL-6 induced p-STAT3 and IFN-7 induced p-STAT1”. Also, the “Inhibition of IL-6 induced p-STAT3” value in the test with IL-6 induced p-STAT3 was “inhibit both IL-6 induced p-STAT3 and IFN-7 induced p-STAT1”. In addition, the IC50 was found to be 9.1 µM in test [1] (setting [7]); 9.1 µM in test [1] (setting [8]); 12.1 µM in test [2]; 19 µM in test [3] (setting [9]); 19 µM in [3] (setting [10]); 29.7 µM in test [4] (setting [12]).
